MIC data for 11 molecules are collected here from paper PMC8154581, “Discovery of Novel Thiophene-arylamide Derivatives as DprE1 Inhibitors with Potent Antimycobacterial Activities” (Journal of Medicinal Chemistry, 2021).

Values after ≈ are worked out from the molar mass of the structure shown.

What all share (test): microbe, parasite or virus in culture
Format in all cases: cell-based

Assay [1] has as its system M. tuberculosis clinical isolate 14862. The note with it: Mycobacterium tuberculosis, read-out: MIC 14862.
The test system of assay [2] is M. tuberculosis clinical isolate 13946. The note with it: Mycobacterium tuberculosis, read-out: MIC 13946.
Assay [3] relates to PBTZ169-resistant strain of M. tuberculosis. The following applies: Mycobacterium tuberculosis, read-out: MIC PBTZ169-resistant strain.
Assay [4] relates to bedaquiline-resistant strain of M. tuberculosis. The following applies: Mycobacterium tuberculosis, read-out: MIC bedaquiline-resistant strain.

Regarding `CCOC(=O)NC(=O)c1ccsc1NC(=O)c1ccc(C(=O)N2CCCCC2)cc1` [Compound 23j, Ethyl (2-(4-(Piperidine-1-carbonyl)benzamido)thiophene-3-carbonyl)carbamate], the MIC is 0.059 µg/mL (≈ 0.137 µM) in assay [1] and 0.082 µg/mL (≈ 0.191 µM) in assay [2].
The like results for `CCOC(=O)NC(=O)c1ccsc1NC(=O)c1ccc(C(=O)N2CCCCC2)c(F)c1` [Compound 24f, Ethyl (2-(3-Fluoro-4-(piperidine-1-carbonyl)benzamido)thiophene-3-carbonyl)carbamate] were, in that order, 0.031 µg/mL (≈ 0.0693 µM) and 0.031 µg/mL (≈ 0.0693 µM).
In the case of `CCOC(=O)NC(=O)c1ccsc1NC(=O)c1ccc(C(=O)N2CCCCC2)s1` [Compound 24j, Ethyl (2-(5-(Piperidine-1-carbonyl)thiophene-2-carboxamido)thiophene-3-carbonyl)carbamate], the MIC in assay [1] and in assay [2] was 0.12 µg/mL (≈ 0.276 µM) each time.
As for `CCOC(=O)NC(=O)c1ccsc1NC(=O)c1coc(C(=O)N2CCCCC2)c1` [Compound 24k, Ethyl (2-(5-(Piperidine-1-carbonyl)furan-3-carboxamido)thiophene-3-carbonyl)carbamate], the results for the MIC in assay [1] and in assay [2] were 0.23 µg/mL (≈ 0.548 µM) and 0.44 µg/mL (≈ 1.05 µM), respectively.
Consider `COC(=O)NC(=O)c1ccsc1NC(=O)c1ccc(C(=O)N2CCCCC2)cc1` [Compound 25a, Methyl (2-(4-(Piperidine-1-carbonyl)benzamido)thiophene-3-carbonyl)carbamate], for which the MIC in assay [1] and in assay [2] was 0.24 µg/mL (≈ 0.578 µM) each time.
Take `COC(=O)NC(=O)c1ccsc1NC(=O)c1ccc(C(=O)N2CCCCC2)c(F)c1` [Compound 25b, Methyl (2-(3-Fluoro-4-(piperidine-1-carbonyl)benzamido)thiophene-3-carbonyl)carbamate]: the values for the MIC in assay [1] and in assay [2] were 0.12 µg/mL (≈ 0.277 µM) and 0.062 µg/mL (≈ 0.143 µM), respectively.
With `O=C(Nc1sccc1C(=O)Nc1nccc(C(F)(F)F)n1)c1ccc(C(=O)N2CCCCC2)cc1` [Compound 25l, 2-(4-(Piperidine-1-carbonyl)benzamido)-N-(4-(trifluoromethyl)pyrimidin-2-yl)thiophene-3-carboxamide], the MIC in assay [1] was 0.48 µg/mL (≈ 0.953 µM); in assay [2], 0.94 µg/mL (≈ 1.87 µM).
In the same order, the values of `NNC(=O)c1ccncc1` [INH, isoniazid, reference compound] are over 10 µg/mL and 2.46 µg/mL (≈ 17.9 µM).
On to `O=c1nc(N2CCN(CC3CCCCC3)CC2)sc2c([N+](=O)[O-])cc(C(F)(F)F)cc12` [PBTZ169], for which the MIC in assay [3] was 0.005 µg/mL (≈ 0.011 µM).
With `CCOC(=O)NC(=O)c1ccsc1NC(=O)c1nc2ccccc2s1` [TCA1, reference compound], the MIC came out at 0.48 µg/mL (≈ 1.28 µM) in assay [1] and 0.95 µg/mL (≈ 2.53 µM) in assay [2].
On to `COc1nc2ccc(Br)cc2cc1[C@@H](c1ccccc1)[C@@](O)(CCN(C)C)c1cccc2ccccc12` [bedaquiline, reference compound], for which, in assay [4], the MIC was 2.24 µg/mL (≈ 4.03 µM).
